From patent US4022787A (priority 1975, dated 1977)
Structures can show the parent of a compound that is named as a salt.

Columns and labels:
sweat glands = conditions: cited from earlier work
rabbit eye pupil = conditions: in vivo

Structure (SMILES)	sweat inhibition (sweat glands)	rabbit eye pupil result compared with test compound (rabbit eye pupil)
CN1C2CC(OC(=O)C(COC(=O)c3ccccc3)c3ccccc3)CC1C1OC12 (centres unmarked) [benzoyl ester of scopolamine]	valuable for sweat inhibition	
CN1[C@@H]2CC[C@H]1C[C@@H](OC(=O)C(CO)c1ccccc1)C2 (some centres unmarked) [Atropine sulfate]		gave similar results
